Legend:
TTK = molecular target: T1, TTK (Homo sapiens, UniProt P33981); test: TTK enzyme inhibition, ADP-Glo kinase assay; format: biochemical; parameters: purchased SignalChem T20-10G; settings: ATP 5 μM
T1 sequence (P33981 1-857): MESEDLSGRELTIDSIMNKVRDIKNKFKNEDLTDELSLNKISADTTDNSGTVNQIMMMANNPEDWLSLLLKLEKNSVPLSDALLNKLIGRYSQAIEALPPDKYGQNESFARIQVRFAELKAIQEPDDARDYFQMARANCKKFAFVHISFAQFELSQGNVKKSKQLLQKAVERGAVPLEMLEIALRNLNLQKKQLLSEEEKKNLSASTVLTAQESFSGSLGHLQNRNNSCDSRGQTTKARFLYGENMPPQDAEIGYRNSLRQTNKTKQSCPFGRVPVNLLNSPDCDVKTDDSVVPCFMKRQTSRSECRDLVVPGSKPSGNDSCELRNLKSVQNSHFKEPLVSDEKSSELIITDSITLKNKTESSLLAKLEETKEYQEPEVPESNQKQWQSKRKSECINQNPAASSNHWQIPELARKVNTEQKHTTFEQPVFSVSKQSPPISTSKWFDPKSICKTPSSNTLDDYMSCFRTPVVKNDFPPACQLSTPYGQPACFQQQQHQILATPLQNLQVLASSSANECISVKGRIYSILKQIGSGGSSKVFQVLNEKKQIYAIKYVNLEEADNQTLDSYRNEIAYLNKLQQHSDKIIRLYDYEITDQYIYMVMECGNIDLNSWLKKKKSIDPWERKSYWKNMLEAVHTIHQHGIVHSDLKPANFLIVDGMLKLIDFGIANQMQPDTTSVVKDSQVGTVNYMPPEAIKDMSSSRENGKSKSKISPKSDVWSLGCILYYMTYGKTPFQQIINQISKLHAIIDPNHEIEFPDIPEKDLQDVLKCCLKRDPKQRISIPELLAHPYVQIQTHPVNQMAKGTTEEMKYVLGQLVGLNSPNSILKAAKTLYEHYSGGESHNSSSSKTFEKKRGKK
Protocol: To evaluate an inhibitory activity of the compound according to the present invention against LRRK2, LRRK2 (G2019S), DYRK1, CLK1, and TTK kinases, experiments were performed as follows.
Each of the Example compounds was reacted with a purified human TTK (SignalChem #T20-10G) enzyme to evaluate an ability to inhibit an enzyme using a method as described below. A composition of 40 mM Tris-HCl (pH 7.4), 20 mM MgCl2, 0.1 mg/mL BSA (a 5× kinase buffer, SignalChem #K03-09), and 50 μM DTT (SignalChem #D86-09B) was used as a reaction buffer, and all reactions of test substances were performed in the reaction buffer. Each of the compounds was diluted […] from a 10 mM DMSO stock using a serial dilution method, and enzyme activities were measured at final compound concentrations of 1, 0.333333, 0.111111, 0.037037, 0.012346, 0.004115, 0.001372, 0.000457, 0.000152, 0.000051, and 0.000017 μM. In the test, purified ATP (5 μM, Promega #V6930) and an MBP enzyme substrate (0.2 μg, SignalChem M42-51N) were reacted with a human TTK (7.5 ng) enzyme at 25° C. for 4 hours, and the enzyme activities were then determined using an in vitro ADP-Glo™ kinase assay (Promega #V6930). An enzyme-activity reaction solution, an ADP-Glo reaction solution, and an enzyme-ability detection solution were reacted at a ratio of 2:2:1 to measure a degree of inhibition of the enzyme activity with luminescence. The degree of inhibition of the enzyme activity according to the treatment concentration of each of the compounds was calculated based on the fluorescence of the enzyme activity of the solvent control which was not treated with the compound. In this case, the concentration of each of the compounds inhibiting 50% of the enzyme activity was determined to be an IC50 (nM) value, and calculated using Prism (Version 8.2 GraphPad) software.

MDA-MB-468 cell line = test: Inhibition of proliferation of MDA-MB-468 cancer cells (Cell Titer-Glo); format: cell-based; settings: Homo sapiens, MDA-MB-468, 72 hours
Procedure, shortened: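 Cells were grown in DMEM or RPMI, seeded at 2,000 cells/well and exposed to 11 threefold dilutions of compound (final 10 to 0.000169 μM) for 72 hours. Viability was read by Cell Titer-Glo luminescence after 10 min at room temperature, and GI50 was calculated from the luminescence data.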

IL-6 = test: Inhibition of LPS-induced IL-6 secretion of THP-1 monocytes (ELISA); format: cell-based, human; settings: Homo sapiens, THP-1; compound 0.5 μM, LPS 500 ng/mL, 24 hours; read-out: THP1/IL6 (% inhib)
Procedure, shortened: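 THP-1 monocytes grown 16 h at 37 °C, pretreated 1 h with compound at final 0.5 μM, then stimulated with LPS at final 500 ng/mL for 24 h. IL-6 and TNF-α in culture supernatant measured by ELISA (OD 450 nm).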

| IC50 (TTK) | GI50 (MDA-MB-468 cell line) | Structure (SMILES) | inhibition at 0.5 µM (IL-6) |
| --- | --- | --- | --- |
| < 100 nM | 51 to 100 nM | N#Cc1c[nH]c2nc(Nc3ccc(C(=O)N4CCOCC4)c4c3OCCO4)nc(NCC3CCCC3)c12 [Example 133, 4-((cyclopentylmethyl)amino)-2-((8-(morpholine-4-carbonyl)-2,3-dihydrobenzo[b][1,4]dioxin-5-yl)amino)-7H-pyrrolo[2,3-d]pyrimidine-5-carbonitrile] | – |
| < 100 nM | – | CCCNc1nc(Nc2ccc(C(=O)N3CCC(N4CCOCC4)CC3)c3c2OCCO3)nc2[nH]cc(C#N)c12 [Example 138, 2-((8-(4-morpholinopiperidine-1-carbonyl)-2,3-dihydrobenzo[b][1,4]dioxin-5-yl)amino)-4-(propylamino)-7H-pyrrolo[2,3-d]pyrimidine-5-carbonitrile] | – |
| < 100 nM | – | CCNc1nc(Nc2ccc(S(=O)(=O)N3CCC(N4CCOCC4)CC3)cc2OC)nc2[nH]cc(C(F)(F)F)c12 [Example 158, N^4-ethyl-N^2-(2-methoxy-4-((4-morpholinopiperidin-1-yl)sulfonyl)phenyl)-5-(trifluoromethyl)-7H-pyrrolo[2,3-d]pyrimidine-2,4-diamine 2,2,2-trifluoroacetate] | – |
| 101 to 300 nM | – | CCCNc1nc(Nc2ccc(S(=O)(=O)N3CCC(N4CCOCC4)CC3)cc2OC)nc2[nH]cc(C(F)(F)F)c12 [Example 161, N^2-(2-methoxy-4-((4-morpholinopiperidin-1-yl)sulfonyl)phenyl)-N^4-propyl-5-(trifluoromethyl)-7H-pyrrolo[2,3-d]pyrimidine-2,4-diamine] | – |
| < 100 nM | 301 to 1000 nM | N#Cc1c[nH]c2nc(Nc3ccc(C(=O)N4CCC(N5CCOCC5)CC4)c4c3OCCO4)nc(C3CC3)c12 [Example 221, 4-cyclopropyl-2-((8-(4-morpholinopiperidine-1-carbonyl)-2,3-dihydrobenzo[b][1,4]dioxin-5-yl)amino)-7H-pyrrolo[2,3-d]pyrimidine-5-carbonitrile] | – |
| 101 to 300 nM | 301 to 1000 nM | COc1cc(S(=O)(=O)N2CCOCC2)ccc1Nc1nc(C2CC2)c2c(C#N)c[nH]c2n1 [Example 223, 4-cyclopropyl-2-((2-methoxy-4-(morpholinosulfonyl)phenyl)amino)-7H-pyrrolo[2,3-d]pyrimidine-5-carbonitrile] | – |
| < 100 nM | < 50 nM | COc1cc(S(=O)(=O)N2CCC(N3CCOCC3)CC2)ccc1Nc1nc(C2CC2)c2c(C#N)c[nH]c2n1 [Example 224, 4-cyclopropyl-2-((2-methoxy-4-((4-morpholinopiperidin-1-yl)sulfonyl)phenyl)amino)-7H-pyrrolo[2,3-d]pyrimidine-5-carbonitrile] | – |
| < 100 nM | 301 to 1000 nM | COc1cc(S(=O)(=O)N2CCC(N3CCOCC3)CC2)ccc1Nc1nc(C2CC2)c2c(C(F)(F)F)c[nH]c2n1 [Example 226] | – |
| < 100 nM | 301 to 1000 nM | O=C(c1ccc(Nc2nc(C3CC3)c3c(C(F)(F)F)c[nH]c3n2)c2c1OCCO2)N1CCC(N2CCOCC2)CC1 [Example 228, (8-((4-cyclopropyl-5-(trifluoromethyl)-7H-pyrrolo[2,3-d]pyrimidin-2-yl)amino)-2,3-dihydrobenzo[b][1,4]dioxin-5-yl)(4-morpholinopiperidin-1-yl)methanone] | – |
| 101 to 300 nM | 301 to 1000 nM | CNc1nc(Nc2cc(F)c(S(=O)(=O)N3CCC(N4CCOCC4)CC3)cc2OC)nc2[nH]cc(C(F)(F)F)c12 [Example 231, N^2-(5-fluoro-2-methoxy-4-((4-morpholinopiperidin-1-yl)sulfonyl)phenyl)-N^4-methyl-5-(trifluoromethyl)-7H-pyrrolo[2,3-d]pyrimidine-2,4-diamine] | – |
| 301 to 1000 nM | 301 to 1000 nM | CCNc1nc(Nc2cc(F)c(S(=O)(=O)N3CCC(N4CCOCC4)CC3)cc2OC)nc2[nH]cc(C(F)(F)F)c12 [Example 232, N^4-ethyl-N^2-(5-fluoro-2-methoxy-4-((4-morpholinopiperidin-1-yl)sulfonyl)phenyl)-5-(trifluoromethyl)-7H-pyrrolo[2,3-d]pyrimidine-2,4-diamine] | – |
| – | – | CNc1nc(Nc2ccc(C(=O)N3CC[C@H](N4CCOCC4)C3)c3c2OCC3)nc2[nH]cc(C(F)(F)F)c12 [Example 236, (S)-(7-((4-(methylamino)-5-(trifluoromethyl)-7H-pyrrolo[2,3-d]pyrimidin-2-yl)amino)-2,3-dihydrobenzofuran-4-yl)(3-morpholinopyrrolidin-1-yl)methanone] | 22.9% |
| < 100 nM | 301 to 1000 nM | CCN1CCP(=O)(c2ccc(Nc3nc(C4CC4)c4c(C#N)c[nH]c4n3)c(OC)c2)CC1 [Example 261] | – |
| – | – | CCNc1nc(Nc2ccc(C(=O)N3CCC(N4CCOCC4)CC3)c3c2OCC3)nc2[nH]cc(C#N)c12 [Example 347, 4-(ethylamino)-2-((4-(4-morpholino-piperidine-1-carbonyl)-2,3-dihydro-benzofuran-7-yl)amino)-7H-pyrrolo[2,3-d]pyrimidine-5-carbonitrile] | 14.1% |
| – | 301 to 1000 nM | O=C(c1ccc(Nc2nc(NC3CC3)c3c(C(F)(F)F)c[nH]c3n2)c2c1OCCO2)N1CCN(C2COC2)CC1 [Example 405, (8-((4-(cyclo-propylamino)-5-(trifluoromethyl)-7H-pyrrolo[2,3-d]pyrimidin-2-yl)amino)-2,3-dihydrobenzo[b] [1,4]dioxin-5-yl) (4-(oxetan-3-yl)piperazin-1-yl)methanone] | – |
| < 100 nM | – | COc1cc(P2(=O)CCN(C3CC3)CC2)ccc1Nc1nc(NC2CCCC2)c2c(C(F)(F)F)c[nH]c2n1 [Example 413] | – |
| < 100 nM | 101 to 300 nM | O=C(c1ccc(Nc2nc(NC3CCCCC3)c3c(C(F)(F)F)c[nH]c3n2)c2c1OCCO2)N1CCN(C2COC2)CC1 [Example 415, (8-((4-(cyclo-hexylamino)-5-(trifluoromethyl)-7H-pyrrolo[2,3-d]pyrimidin-2-yl)amino)-2,3-dihydrobenzo[b] [1,4]dioxin-5-yl) (4-(oxetan-3-yl)piperazin-1-yl)methanone] | – |
| – | – | O=C(c1ccc(Nc2nc(NCC3CC3)c3c(C(F)(F)F)c[nH]c3n2)c2c1CCO2)N1CCC(N2CCOCC2)CC1 [Example 461, (7-((4-((cyclo-propylmeth-yl)amino)-5-(trifluoromethyl)-7H-pyrrolo[2,3-d]pyrimidin-2-yl)amino)-2,3-dihydrobenzo-furan-4-yl)(4-morpho-linopiperidin-1-yl)methanone] | 25.7% |
| – | – | CCNc1nc(Nc2ccc(C(=O)N3CC[C@H](N4CCOCC4)C3)c3c2OCC3)nc2[nH]cc(C(F)(F)F)c12 [Example 475, (S)-(7-((4-(ethylamino)-5-(trifluoromethyl)-7H-pyrrolo[2,3-d]pyrimidin-2-yl)amino)-2,3-dihydrobenzo-furan-4-yl)(3-morpholino-pyrrolidin-1-yl)methanone] | 42.5% |
